Paper PMC11530689, “Anti colorectal cancer activity and in silico studies of novel pyridine nortopsentin analog as cyclin dependent kinase 6 inhibitor” (Scientific Reports, 2024)

Tests used:
Experiment in all cases: NCI 60 cell line screen
HCT-116 = assay type: cell-based, human; conditions: HCT-116, Colon Cancer; single concentration 10^−5 M
Outline: (§1)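 Cytotoxicity was determined at 10^-5 M in the NCI sixty-cell-line program; each line received that single concentration.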

RXF 393 = assay type: cell-based; conditions: RXF 393, Renal Cancer; single concentration 10^−5 M
Outline: as §1

SF-539 = assay type: cell-based; conditions: SF-539, CNS Cancer; single concentration 10^−5 M
Outline: as §1

A549/ATCC = assay type: cell-based; conditions: Non-Small Cell Lung Cancer, single concentration 10^−5 M
Outline: as §1

786-0 = assay type: cell-based; conditions: 786-0, Renal Cancer; single concentration 10^−5 M
Outline: as §1

SW-620 = assay type: cell-based; conditions: SW-620, Colon Cancer; single concentration 10^−5 M
Outline: as §1

PC-3 = assay type: cell-based; conditions: PC-3, Prostate Cancer; single concentration 10^−5 M
Outline: as §1

NCI-H23 = assay type: cell-based; conditions: NCI-H23, Non-Small Cell Lung Cancer; single concentration 10^−5 M
Outline: as §1

K-562 = assay type: cell-based; conditions: K-562, Leukemia; single concentration 10^−5 M
Outline: as §1

SK-MEL-2 = assay type: cell-based; conditions: SK-MEL-2, Melanoma; single concentration 10^−5 M
Outline: as §1

SK-MEL-5 = assay type: cell-based; conditions: SK-MEL-5, Melanoma; single concentration 10^−5 M
Outline: as §1

KM12 = assay type: cell-based; conditions: KM12, Colon Cancer; single concentration 10^−5 M
Outline: as §1

HS 578T = assay type: cell-based; conditions: Breast Cancer, single concentration 10^−5 M
Outline: as §1

UACC-62 = assay type: cell-based; conditions: UACC-62, Melanoma; single concentration 10^−5 M
Outline: as §1

NCI-H226 = assay type: cell-based; conditions: NCI-H226, Non-Small Cell Lung Cancer; single concentration 10^−5 M
Outline: as §1

A498 = assay type: cell-based; conditions: A498, Renal Cancer; single concentration 10^−5 M
Outline: as §1

NCI-H460 = assay type: cell-based; conditions: NCI-H460, Non-Small Cell Lung Cancer; single concentration 10^−5 M
Outline: as §1

CAKI-1 = assay type: cell-based; conditions: CAKI-1, Renal Cancer; single concentration 10^−5 M
Outline: as §1

NCI/ADR-RES = assay type: cell-based; conditions: Ovarian Cancer, single concentration 10^−5 M
Outline: as §1

UACC-257 = assay type: cell-based; conditions: UACC-257, Melanoma; single concentration 10^−5 M
Outline: as §1

HT29 = assay type: cell-based; conditions: HT29, Colon Cancer; single concentration 10^−5 M
Outline: as §1

HCT-15 = assay type: cell-based; conditions: HCT-15, Colon Cancer; single concentration 10^−5 M
Outline: as §1

DU-145 = assay type: cell-based; conditions: DU-145, Prostate Cancer; single concentration 10^−5 M
Outline: as §1

TK-10 = assay type: cell-based; conditions: TK-10, Renal Cancer; single concentration 10^−5 M
Outline: as §1

ACHN = assay type: cell-based; conditions: Renal Cancer, single concentration 10^−5 M
Outline: as §1

T-47D = assay type: cell-based; conditions: Breast Cancer, single concentration 10^−5 M
Outline: as §1

MDA-MB-231/ATCC = assay type: cell-based; conditions: Breast Cancer, single concentration 10^−5 M
Outline: as §1

NCI-H322M = assay type: cell-based; conditions: Non-Small Cell Lung Cancer, single concentration 10^−5 M
Outline: as §1

SNB-19 = assay type: cell-based; conditions: SNB-19, CNS Cancer; single concentration 10^−5 M
Outline: as §1

RPMI-8226 = assay type: cell-based; conditions: RPMI-8226, Leukemia; single concentration 10^−5 M
Outline: as §1

BT-549 = assay type: cell-based; conditions: BT-549, Breast Cancer; single concentration 10^−5 M
Outline: as §1

SR = assay type: cell-based; conditions: Leukemia, single concentration 10^−5 M
Outline: as §1

CCRF-CEM = assay type: cell-based; conditions: Leukemia, single concentration 10^−5 M
Outline: as §1

OVCAR-4 = assay type: cell-based; conditions: OVCAR-4, Ovarian Cancer; single concentration 10^−5 M
Outline: as §1

OVCAR-3 = assay type: cell-based; conditions: OVCAR-3, Ovarian Cancer; single concentration 10^−5 M
Outline: as §1

HOP-92 = assay type: cell-based; conditions: HOP-92, Non-Small Cell Lung Cancer; single concentration 10^−5 M
Outline: as §1

U251 = assay type: cell-based; conditions: U251, CNS Cancer; single concentration 10^−5 M
Outline: as §1

OVCAR-8 = assay type: cell-based; conditions: OVCAR-8, Ovarian Cancer; single concentration 10^−5 M
Outline: as §1

N#Cc1c(-c2ccc(O)cc2)cc(-c2c[nH]c3ccccc23)nc1-c1c[nH]c2ccccc12 [4j]
Growth % (HCT-116): 105.38%
Growth % (RXF 393): 83.24%
Growth % (SF-539): 66.62%
Growth % (A549/ATCC): 105.12%
Growth % (786-0): 101.37%
Growth % (SW-620): 108.39%
Growth % (PC-3): 98.38%
Growth % (NCI-H23): 89.30%
Growth % (K-562): 67.98%
Growth % (SK-MEL-2): 100.11%
Growth % (SK-MEL-5): 84.85%
Growth % (KM12): 96.89%
Growth % (HS 578T): 89.18%
Growth % (UACC-62): 96.73%
Growth % (NCI-H226): 86.10%
Growth % (A498): 110.66%
Growth % (NCI-H460): 103.74%
Growth % (CAKI-1): 90.60%
Growth % (NCI/ADR-RES): 102.41%
Growth % (UACC-257): 108.53%
Growth % (HT29): 111.48%
Growth % (HCT-15): 57.19%
Growth % (DU-145): 104.31%
Growth % (TK-10): 149.07%
Growth % (ACHN): 72.15%
Growth % (T-47D): 98.31%
Growth % (MDA-MB-231/ATCC): 92.33%
Growth % (NCI-H322M): 101.04%
Growth % (SNB-19): 108.35%
Growth % (RPMI-8226): 101.54%
Growth % (BT-549): 96.81%
Growth % (SR): 76.19%
Growth % (CCRF-CEM): 76.51%
Growth % (OVCAR-4): 94.07%
Growth % (OVCAR-3): 92.93%
Growth % (HOP-92): 125.42%
Growth % (U251): 96.90%
Growth % (OVCAR-8): 99.60%
